Several values for one entry are separate records, joined by “and”; a condition that tells them apart may be missing. Equal entries are not always repeated. Entries after “also recorded” stand apart in the source; their conditions may differ. Structures can show the parent of a compound that is named as a salt.
What was measured:
[1] = system: interferon alpha (Mu-IFN-α); assay: Murine interferon alpha in plasma of dosed mice; assay type: in vivo; settings: for Plasma Concentration of Interferon Alpha (Mu-IFN-α), Mean / Plasma Concentration of Interferon Alpha (Mu-IFN-α), Individual Value: single oral 73.0 mg/kg dose
Excerpt: The normal mouse provides a useful system for the assessment of the degree to which the inventions described herein provide material improvement in the oral delivery of 1 (isatoribine). Not only can one measure the plasma concentrations of isatoribine arising from oral administration of the said prodrug(s) but also the extensive immunological research conducted in the mouse has provided reagents suitable for measuring the levels of interferon alpha, a cytokine of interest reflecting one of the desired biologic activities of isatoribine.
Table 1 records the results of an assay for murine interferon alpha in the plasma of mice that were dosed two times with isatoribine, formulated in bicarbonate, at a level of 50 mg/kg by the oral route.
Table 2 records the results of assays for murine interferon alpha in the plasma of mice that first were dosed with bicarbonate and then four hours later were dosed orally with isatoribine, formulated in bicarbonate, at a level of 50 mg/kg. Interferon was reported in the plasma from four mice, including two that had received the bicarbonate vehicle dose.
Table 3 records the results of assays for murine interferon alpha in the plasma of mice that were dosed orally with val-isatoribine, dissolved in bicarbonate, at a dose that is equivalent to 50/mg/kg of isatoribine on a molar basis. […] Interferon was detected in all mice assayed at a given time point, indicating the reliability of the effect following val-isatoribine administration.
In other experiments, plasma levels of isatoribine and interferon alpha were measured in mice that were dosed with isatoribine by the intravenous route, and these levels were compared to the levels of isatoribine and interferon alpha arising after oral administration of val-isatoribine. […] Thus, oral val-isatoribine provides levels of isatoribine and interferon that are approximately 50% of those observed after intravenous administration of isatoribine itself.

[2] = Systemic exposure to isatoribine after oral administration to beagle dogs; assay type: in vivo; settings: both 10 and 50 mg/kg
Experimental: The effect of a prodrug (val-isatoribine, 3) on the systemic exposure to isatoribine (1) after oral administration to beagle dogs was investigated. Isatoribine was prepared in sodium bicarbonate solution.
Four male and four female adult beagle dogs weighing between 15 to 27 kg and approximately 1-2 years old were used at the beginning of the study. The animals were divided into 2 groups of 2 males and 2 females each. The test material was administered by gavage on Days 1 and 8, allowing a 7-day washout period between administrations. Blood samples (2 mL) were collected from each animal at predose, 15, 30 minutes, 1, 2, 3, 4, 6, 8 and 10 hours into lithium heparin tubes after each dosing. The plasma was frozen at −70° C. until analysis. The plasma was analyzed for isatoribine by an HPLC-MS/MS assay.

[3] = system: beagle dogs; assay: Toxicology studies in beagle dogs (GI tolerance); settings: dogs; for Emesis or loose stool / GI lesions or irritation: Oral Val-Isatoribine
Experimental: Formal toxicology studies of intravenously administered isatoribine and orally administered isatoribine and val-isatoribine were conducted in beagle dogs.
In each case the compound was administered as a solution, by gavage or by intravenous infusion. Multiple parameters were assessed, as is customary in a toxicology study. In the studies providing higher potential exposure to isatoribine, the plasma concentration of isatoribine was assessed by a LC/MS method.

[4] = in vitro; assay type: in vitro ADME; settings: human, Caco-2
Excerpt: (§1) See, e.g., Hilgers, A. R. et al., Pharm. Res., 20(8), 1149-55 (August 2003).

[5] = system: Caco-2 cells; assay: in vitro; assay type: in vitro ADME; settings: human
Excerpt: as §1

[6] = oral dosing, studies of Tables 1-3
[7] = isatoribine equivalent applied dose 8.1 mg/kg
[8] = isatoribine equivalent applied dose 16 mg/kg
[9] = isatoribine equivalent applied dose 32 mg/kg
[10] = isatoribine equivalent applied dose 64 mg/kg

CC(C)[C@H](N)C(=O)OC[C@H]1O[C@@H](n2c(=O)sc3c(O)nc(N)nc32)[C@H](O)[C@@H]1O (as salt: hydrochloride) [Compound 3, 5-Amino-3-(5′-O-L-valinyl-β-D-ribofuranosyl)thiazolo[4,5-d]pyrimidine-2,7-dione Dihydrochloride]
melting point: 166 to 168 °C (dec.)

CN[C@H](C(=O)OC[C@H]1O[C@@H](n2c(=O)sc3c(O)nc(N)nc32)[C@H](O)[C@@H]1O)C(C)C (as salt: hydrochloride) [Compound 11, 5-Amino-3-(5′-O-[α-L-N-methylvalinyl]-β-D-ribofuranosyl)thiazolo[4,5-d]pyrimidine-2,7-dione Hydrochloride]
melting point: > 180 °C (dec.)

CC(C)[C@H](N)C(=O)OC[C@H]1O[C@@H](n2c(=O)sc3c(O)nc(N)nc32)[C@H](O)[C@@H]1O [Compound 3, 5-Amino-3-(5′-O-L-valinyl-β-D-ribofuranosyl)thiazolo[4,5-d]pyrimidine-2,7-dione Dihydrochloride]
increase of magnitude of average and peak interferon response versus isatoribine ([1]; mice, oral): twofold | level of interferon relative to intravenous isatoribine ([1]; mice, oral, 50 mg/kg isatoribine molar equivalent, vs intravenous isatoribine 25 mg/kg, FIG. 1): approximately 50% | interferon in plasma ([1]; mice, oral, equivalent to 50 mg/kg isatoribine): readily measurable at 1.0 hour, 1.5 hours, and 2.0 hours after dosing | Plasma Concentration of Interferon Alpha (Mu-IFN-α), Mean ([1]; mice, 0.00 h): 0.00 pg/mL | Plasma Concentration of Interferon Alpha (Mu-IFN-α), Individual Value ([1]; mice, 0.00 h, listed as Val-Isatoribine, Dihydrochloride, 73 mg/kg): BQL (Below the Quantifiable Limit < 12.5 pg/mL); also recorded: BQL^125 pg/mL; also recorded: BQL^25 pg/mL | Plasma Concentration of Interferon Alpha (Mu-IFN-α), Individual Value ([1]; mice, 0.25 h): BQL (Below the Quantifiable Limit < 12.5 pg/mL) | Plasma Concentration of Interferon Alpha (Mu-IFN-α), Mean ([1]; mice, 0.25 h): 0.00 pg/mL | Plasma Concentration of Interferon Alpha (Mu-IFN-α), Mean ([1]; mice, 0.50 h): 0.00 pg/mL | Plasma Concentration of Interferon Alpha (Mu-IFN-α), Individual Value ([1]; mice, 0.50 h, listed as Val-Isatoribine, Dihydrochloride, 73 mg/kg): BQL^25 pg/mL; also recorded: BQL (Below the Quantifiable Limit < 12.5 pg/mL) | Plasma Concentration of Interferon Alpha (Mu-IFN-α), Mean ([1]; mice, 0.75 h): 0.00 pg/mL | Plasma Concentration of Interferon Alpha (Mu-IFN-α), Individual Value ([1]; mice, 0.75 h, listed as Val-Isatoribine, Dihydrochloride, 73 mg/kg): BQL (Below the Quantifiable Limit < 12.5 pg/mL); also recorded: BQL^25 pg/mL | Plasma Concentration of Interferon Alpha (Mu-IFN-α), Mean ([1]; mice, 1.00 h): 129.1 pg/mL | Plasma Concentration of Interferon Alpha (Mu-IFN-α), Individual Value ([1]; mice, 1.00 h, listed as Val-Isatoribine, Dihydrochloride, 73 mg/kg): 173.2 pg/mL and 125.1 pg/mL and 89.0 pg/mL | Plasma Concentration of Interferon Alpha (Mu-IFN-α), Mean ([1]; mice, 1.50 h): 214.5 pg/mL | Plasma Concentration of Interferon Alpha (Mu-IFN-α), Individual Value ([1]; mice, 1.50 h, listed as Val-Isatoribine, Dihydrochloride, 73 mg/kg): 202.9 pg/mL and 145.9 pg/mL and 294.8 pg/mL | Plasma Concentration of Interferon Alpha (Mu-IFN-α), Mean ([1]; mice, 2.00 h): 108.5 pg/mL | Plasma Concentration of Interferon Alpha (Mu-IFN-α), Individual Value ([1]; mice, 2.00 h, listed as Val-Isatoribine, Dihydrochloride, 73 mg/kg): 49.2 pg/mL and 137.9 pg/mL and 138.3 pg/mL | Plasma Concentration of Interferon Alpha (Mu-IFN-α), Individual Value ([1]; mice, 3.00 h): BQL^25 pg/mL | Plasma Concentration of Interferon Alpha (Mu-IFN-α), Mean ([1]; mice, 3.00 h): 0.00 pg/mL | Plasma Concentration of Interferon Alpha (Mu-IFN-α), Mean ([1]; mice, 4.00 h): 9.20 pg/mL | Plasma Concentration of Interferon Alpha (Mu-IFN-α), Individual Value ([1]; mice, 4.00 h, listed as Val-Isatoribine, Dihydrochloride, 73 mg/kg): BQL^25 pg/mL and 27.6 pg/mL and BQL (Below the Quantifiable Limit < 12.5 pg/mL) | Plasma Concentration of Interferon Alpha (Mu-IFN-α), Mean ([1]; mice, 5.00 h): 0.00 pg/mL | Plasma Concentration of Interferon Alpha (Mu-IFN-α), Individual Value ([1]; mice, 5.00 h, listed as Val-Isatoribine, Dihydrochloride, 73 mg/kg): BQL (Below the Quantifiable Limit < 12.5 pg/mL); also recorded: BQL^25 pg/mL | mice with interferon detected in plasma [1, 6]: 10 of the 30 | proportion of mice exhibiting an interferon response [1, 6]: 30% | maximum concentrations of isatoribine compared to isatoribine itself [2]: at least doubled | GI lesions ([3]; oral): No GI lesions were found | Emesis or loose stool [3, 7]: Neg. | GI lesions or irritation [3, 7]: Neg. | Emesis or loose stool [3, 8]: Neg. | GI lesions or irritation [3, 8]: Neg. | Emesis or loose stool [3, 9]: Neg. | GI lesions or irritation [3, 9]: Neg. | Emesis or loose stool [3, 10]: Neg. | GI lesions or irritation [3, 10]: Neg. | GI lesions or irritation ([3]; isatoribine equivalent applied dose 130 mg/kg): Neg. | GI lesions or irritation ([3]; isatoribine equivalent applied dose 260 mg/kg): Neg. | GI lesions or irritation ([3]; isatoribine equivalent applied dose 390 mg/kg): Neg.

COc1nc(N)nc2c1sc(=O)n2[C@@H]1O[C@H](CO)[C@@H](O)[C@H]1O [Compound 14, 5-Amino-3-β-D-ribofuranosyl-7-methoxy-thiazolo[4,5-d]pyrimidin-2-one]
melting point: > 160 °C (dec.)

Nc1nc(N)c2sc(=O)n([C@@H]3O[C@H](CO)[C@@H](O)[C@H]3O)c2n1 [Compound 15, 5,7-Diamino-3-β-D-ribofuranosylthiazolo[4,5-d]pyrimidin-2-one]
melting point: > 155 °C (dec.)

CNc1nc(N)nc2c1sc(=O)n2[C@@H]1O[C@H](CO)[C@@H](O)[C@H]1O [Compound 18]
melting point: > 108 °C

CN(C)c1nc(N)nc2c1sc(=O)n2[C@@H]1O[C@H](CO)[C@@H](O)[C@H]1O [Compound 20, 5-Amino-7-dimethylamino-3-β-D-ribofuranosylthiazolo[4,5-d]pyrimidin-2-one]
melting point: > 112 °C

Nc1nc(NC2CCCC2)c2sc(=O)n([C@@H]3O[C@H](CO)[C@@H](O)[C@H]3O)c2n1 [Compound 22, 5-Amino-7-cyclopentylamino-3-β-D-ribofuranosylthiazolo[4,5-d]pyrimidin-2-one]
melting point: > 108 °C (dec.)

Nc1nc(N2CCCC2)c2sc(=O)n([C@@H]3O[C@H](CO)[C@@H](O)[C@H]3O)c2n1 [Compound 23, 5-Amino-7-pyrrolidino-3-β-D-ribofuranosylthiazolo[4,5-d]pyrimidin-2-one]
melting point: > 112.4 °C (dec.)

CC(=O)OC[C@H]1O[C@@H](n2c(=O)sc3cnc(N)nc32)[C@H](OC(C)=O)[C@@H]1OC(C)=O [Compound 78, 5-Amino-3-(2′,3′,5′-tri-O-acetyl-β-D-ribofuranosyl)-3H-thiazolo[4,5-d]pyrimidin-2-one]
Papp A→B [4]: 60 ×10⁻⁶ cm/s | Caco2 transport compared with 79 [5]: significantly improved transport over 79 | melting point: 121 to 123 °C

Nc1ncc2sc(=O)n([C@@H]3O[C@H](CO)[C@@H](O)[C@H]3O)c2n1 [Compound 79, 5-Amino-3-β-D-ribofuranosyl-3H-thiazolo-[4,5-d]pyrimidin-2-one]
Papp A→B [4]: 10 ×10⁻⁶ cm/s | melting point: 220 °C (dec.)

CC(=O)O[C@@H]1[C@H](OC(C)=O)[C@@H](CO)O[C@H]1n1c(=O)sc2cnc(N)nc21 [Compound 89, 5-Amino-3-(2′,3′-di-O-acetyl-β-D-ribofuranosyl)-3H-thiazolo[4,5-d]pyrimidin-2-one]
Papp A→B [4]: 20 ×10⁻⁶ cm/s | Caco2 transport compared with 79 [5]: significantly improved transport over 79 | melting point: 109 to 111 °C

Source: patent US20080070852A1, “3-Beta-D-Ribofuranosylthiazolo[ 4,5-D] Pyridimine Nucleosides and Uses Thereof” (priority 2004, published 2008)
